Values after ≈ are worked out from the molar mass of the structure shown. Where two headings read alike, the source gives them in different places.
Experiments:
[1] = test system: Strep. faecalis I; assay: MIC against human bacteria in vitro; assay type: cell-based; settings: Strep. faecalis I, 5% chocolated horse blood agar, 18 hours
[2] = test system: Corynebacterium pyogenes CY1; assay: MIC against veterinary bacteria in vitro
Procedure: (§1) The activity of the compounds of the Examples against various veterinarily important bacteria, was assayed in vitro using two-fold serial dilutions in Diagnostic Sensitivity Test Agar inoculated with 10^4 organisms.

[3] = test system: M. bovis NCTC 10131; assay: microbe, parasite or virus in culture; assay type: cell-based
[4] = test system: Erysipelothrix rhusiopathiae NCTC 8163; assay: MIC against veterinary bacteria in vitro
Procedure: as §1

[5] = test system: M. suipneumoniae LABER; assay: MIC against mycoplasma in vitro; assay type: cell-based
[6] = test system: M. suipneumoniae HK(2); assay: MIC against mycoplasma in vitro; assay type: cell-based
[7] = test system: S. typhimurium S18; assay: MIC against veterinary bacteria in vitro
Procedure: as §1

[8] = test system: Bord. bronchiseptica B09; assay: MIC against veterinary bacteria in vitro
Procedure: as §1

[9] = test system: Strep. dysgalactiae SPD1; assay: MIC against veterinary bacteria in vitro
Procedure: as §1

[10] = test system: Strep. spp. 64/848-C; assay: MIC against human bacteria in vitro; assay type: cell-based; settings: Strep. spp. 64/848-C, 5% chocolated horse blood agar, 18 hours
[11] = test system: E. coli ESS; assay: MIC against human bacteria in vitro; assay type: cell-based; settings: E. coli ESS, 5% chocolated horse blood agar, 18 hours
[12] = test system: Bord. bronchiseptica B08; assay: MIC against veterinary bacteria in vitro
Procedure: as §1

[13] = test system: Bacillus subtilis 6633; assay: MIC against human bacteria in vitro; assay type: cell-based; settings: Bacillus subtilis 6633, 5% chocolated horse blood agar, 18 hours
[14] = test system: Staph. aureus Oxford; assay: MIC against veterinary bacteria in vitro
Procedure: as §1

[15] = test system: Staph. aureus B4 (pen. resistant); assay: MIC against veterinary bacteria in vitro
Procedure: as §1

[16] = test system: Strep. uberis SPU1; assay: MIC against veterinary bacteria in vitro
Procedure: as §1

[17] = test system: M. pneumoniae ATCC 15492; assay: MIC against mycoplasma in vitro; assay type: cell-based; settings: M. pneumoniae ATCC 15492, 6 days, 37° C.
[18] = test system: M. hyorhinis ATCC 23234; assay: MIC against mycoplasma in vitro; assay type: cell-based
[19] = test system: K. aerogenes A; assay: MIC against human bacteria in vitro; assay type: cell-based; settings: K. aerogenes A, 5% chocolated horse blood agar, 18 hours
[20] = test system: Pasteurella multocida 1633; assay: MIC against human bacteria in vitro; assay type: cell-based; settings: Pasteurella multocida 1633, 5% chocolated horse blood agar, 18 hours
[21] = test system: M. hyosynoviae ATCC 25591; assay: MIC against mycoplasma in vitro; assay type: cell-based
[22] = test system: M. suipneumoniae J2206/183^b; assay: MIC against mycoplasma in vitro; assay type: cell-based
[23] = Enterococcus faecalis, read-out: MIC
[24] = Erysipelothrix rhusiopathiae, NCTC8163, 18 h
[25] = Mesomycoplasma hyopneumoniae, 144 h
[26] = Salmonella enterica, TYPHIMURIUM, 18 h
[27] = Bordetella bronchiseptica, B09, 18 h
[28] = Streptococcus dysgalactiae, SPD1, 18 h
[29] = Escherichia coli, read-out: MIC
[30] = Bordetella bronchiseptica, B08, 18 h
[31] = Streptococcus uberis, SPU1, 18 h
[32] = Mycoplasmoides pneumoniae, ATCC15492, 144 h, read-out: MIC
[33] = Klebsiella aerogenes, read-out: MIC
[34] = 144 h, M. hyosynoviae ATCC 25591, 6 days, 37° C., read-out: MIC
[35] = Mesomycoplasma hyorhinis, ATCC23234, 144 h

**Q.** Which results are given for C/C(=C\c1ncc(-c2ccc(C(=O)O)cc2)o1)C[C@@H]1OC[C@H](C[C@@H]2O[C@H]2[C@@H](C)[C@H](C)O)[C@@H](O)[C@H]1O [Example 17, Sodium 4-[2-(1-normon-2-yl)-5-oxazolyl] benzoate A]?
**A.** MIC [1, 23]: > 64 µg/mL; MIC ([2]; CY1, 18 h): > 80 µg/mL; MIC ([3]; NCTC10131, 144 h): 2.5 µg/mL; MIC [4, 24]: 80 µg/mL; MIC [5, 25]: 2.5 µg/mL; MIC ([6]; Mesomycoplasma hyopneumoniae, 144 h, M. suipneumoniae HK(2), 6 days, 37° C., read-out: MIC): 10 µg/mL; MIC [7, 26]: > 80 µg/mL; MIC [8, 27]: 40 µg/mL; MIC [9, 28]: 2.5 µg/mL; MIC ([10]; read-out: MIC): 32 µg/mL; MIC [11, 29]: 16 µg/mL; MIC [12, 30]: > 80 µg/mL; MIC ([13]; read-out: MIC): 32 µg/mL; MIC ([14]; Staphylococcus aureus, 18 h): 20 µg/mL; MIC ([15]; Staphylococcus aureus, 18 h): 10 µg/mL; MIC [16, 31]: 1.25 µg/mL; MIC [17, 32]: > 10 µg/mL; MIC ([18]; Mesomycoplasma hyorhinis, ATCC23234, 144 h, M. hyorhinis ATCC 23234, 6 days, 37° C., read-out: MIC): 5 µg/mL; MIC [19, 33]: > 64 µg/mL; MIC ([20]; read-out: MIC): 8 µg/mL; MIC [21, 34]: > 10 µg/mL; MIC ([22]; Mesomycoplasma hyopneumoniae, 144 h, M. suipneumoniae J2206/183^b, 6 days, 37° C., read-out: MIC): 5 µg/mL

**Q.** What does the source list for CC(=Cc1cc(C)no1)CC1OCC(CC2OC2C(C)C(C)O)C(O)C1O (stereo not shown) [Example 30, 3-Methyl-5-(1-normon-2-yl) isoxazole A]?
**A.** MIC [1]: > 128 µg/mL; MIC ([2]; Corynebacterium pyogenes CY1, Diagnostic Sensitivity Test Agar, 18 hours): > 80 µg/mL; MIC ([3]; M. bovis NCTC 10131, 6 days, 37° C.): 0.25 µg/mL (≈ 0.655 µM); MIC ([4]; Erysipelothrix rhusiopathiae NCTC 8163, Diagnostic Sensitivity Test Agar, 18 hours): > 80 µg/mL; MIC ([5]; M. suipneumoniae LABER, 6 days, 37° C.): 2.5 µg/mL (≈ 6.55 µM); MIC ([6]; M. suipneumoniae HK(2), 6 days, 37° C.): 2.5 µg/mL (≈ 6.55 µM); MIC ([7]; S. typhimurium S18, Diagnostic Sensitivity Test Agar, 18 hours): > 80 µg/mL; MIC ([8]; Bord. bronchiseptica B09, Diagnostic Sensitivity Test Agar, 18 hours): > 80 µg/mL; MIC ([9]; Strep. dysgalactiae SPD1, Diagnostic Sensitivity Test Agar, 18 hours): 40 µg/mL (≈ 105 µM); MIC [10]: > 128 µg/mL; MIC [11]: 8.0 µg/mL (≈ 21 µM); MIC ([12]; Bord. bronchiseptica B08, Diagnostic Sensitivity Test Agar, 18 hours): > 80 µg/mL; MIC [13]: 8.0 µg/mL (≈ 21 µM); MIC ([14]; Staph. aureus Oxford, Diagnostic Sensitivity Test Agar, 18 hours): 2.5 µg/mL (≈ 6.55 µM); MIC ([15]; Staph. aureus B4 (pen. resistant), Diagnostic Sensitivity Test Agar, 18 hours): 1.25 µg/mL (≈ 3.28 µM); MIC ([16]; Strep. uberis SPU1, Diagnostic Sensitivity Test Agar, 18 hours): 10 µg/mL (≈ 26.2 µM); MIC [17]: 10 µg/mL (≈ 26.2 µM); MIC ([18]; M. hyorhinis ATCC 23234, 6 days, 37° C.): 0.5 µg/mL (≈ 1.31 µM); MIC [19]: > 128 µg/mL; MIC [20]: 8.0 µg/mL (≈ 21 µM); MIC ([21]; M. hyosynoviae ATCC 25591, 6 days, 37° C.): 1.0 µg/mL (≈ 2.62 µM); MIC ([22]; M. suipneumoniae J2206/183^b, 6 days, 37° C.): 2.5 µg/mL (≈ 6.55 µM)

**Q.** How did the MIC [1, 23] turn out when C/C(=C\c1cc(C)on1)C[C@@H]1OC[C@H](C[C@@H]2O[C@H]2[C@@H](C)[C@H](C)O)[C@@H](O)[C@H]1O [Example 33, 5-Methyl-3-(1-normon-2-yl) isoxazole A] was run?
**A.** Its MIC is > 128 µg/mL.

**Q.** What about the MIC ([2]; CY1, 18 h) of the same molecule?
**A.** The MIC was > 80 µg/mL.

**Q.** And the MIC ([3]; NCTC10131, 144 h)?
**A.** The MIC was 0.25 µg/mL (≈ 0.655 µM).

**Q.** And the MIC [4, 24]?
**A.** The MIC was > 80 µg/mL.

**Q.** And the MIC [5, 25]?
**A.** Its MIC is 2.5 µg/mL (≈ 6.55 µM).

**Q.** And the MIC [6, 25]?
**A.** The MIC was 2.5 µg/mL (≈ 6.55 µM).

**Q.** And the MIC [7, 26]?
**A.** The MIC was > 80 µg/mL.

**Q.** What about the MIC [8, 27] of the same molecule?
**A.** The MIC was > 80 µg/mL.

**Q.** What about the MIC [9, 28] of the same molecule?
**A.** The MIC was 5 µg/mL (≈ 13.1 µM).

**Q.** What about the MIC ([10]; read-out: MIC) of the same molecule?
**A.** Its MIC is 32 µg/mL (≈ 83.9 µM).

**Q.** And the MIC [11, 29]?
**A.** The MIC was 8 µg/mL (≈ 21 µM).

**Q.** What about the MIC [12, 30] of the same molecule?
**A.** Its MIC is > 80 µg/mL.

**Q.** What about the MIC ([13]; read-out: MIC) of the same molecule?
**A.** Its MIC is 1 µg/mL (≈ 2.62 µM).

**Q.** What about the MIC ([14]; Staphylococcus aureus, 18 h) of the same molecule?
**A.** The MIC was 2.5 µg/mL (≈ 6.55 µM).

**Q.** And the MIC ([15]; Staphylococcus aureus, 18 h)?
**A.** The MIC was 1.3 µg/mL (≈ 3.41 µM).

**Q.** And the MIC [16, 31]?
**A.** Its MIC is 5 µg/mL (≈ 13.1 µM).

**Q.** What about the MIC [17, 32] of the same molecule?
**A.** The MIC was 10 µg/mL (≈ 26.2 µM).

**Q.** And the MIC [18, 35]?
**A.** Its MIC is 1 µg/mL (≈ 2.62 µM).

**Q.** And the MIC [19, 33]?
**A.** Its MIC is > 128 µg/mL.

**Q.** And the MIC ([20]; read-out: MIC)?
**A.** The MIC was 2 µg/mL (≈ 5.24 µM).

**Q.** What about the MIC ([21]; 144 h) of the same molecule?
**A.** The MIC was 2.5 µg/mL (≈ 6.55 µM).

**Q.** What about the MIC [22, 25] of the same molecule?
**A.** The MIC was 1 µg/mL (≈ 2.62 µM).

**Q.** For C/C(=C\c1cc(-c2ccccc2)on1)C[C@@H]1OC[C@H](C[C@@H]2O[C@H]2[C@@H](C)[C@H](C)O)[C@@H](O)[C@H]1O [Example 34, 3-(1-Normon-2-yl)-5-phenylisoxazole A], which MIC [1, 23] is on record?
**A.** The MIC was > 128 µg/mL.

**Q.** What about the MIC ([2]; CY1, 18 h) of the same molecule?
**A.** Its MIC is > 80 µg/mL.

**Q.** And the MIC ([3]; NCTC10131, 144 h)?
**A.** The MIC was 0.25 µg/mL (≈ 0.564 µM).

**Q.** And the MIC [4, 24]?
**A.** The MIC was > 80 µg/mL.

**Q.** And the MIC [5, 25]?
**A.** Its MIC is 1 µg/mL (≈ 2.25 µM).

**Q.** What about the MIC [6, 25] of the same molecule?
**A.** The MIC was 2.5 µg/mL (≈ 5.64 µM).

**Q.** What about the MIC [7, 26] of the same molecule?
**A.** Its MIC is > 80 µg/mL.

**Q.** What about the MIC [8, 27] of the same molecule?
**A.** Its MIC is 40 µg/mL (≈ 90.2 µM).

**Q.** What about the MIC [9, 28] of the same molecule?
**A.** Its MIC is 10 µg/mL (≈ 22.5 µM).

**Q.** And the MIC ([10]; read-out: MIC)?
**A.** Its MIC is 64 µg/mL (≈ 144 µM).

**Q.** And the MIC [11, 29]?
**A.** Its MIC is 16 µg/mL (≈ 36.1 µM).

**Q.** And the MIC [12, 30]?
**A.** The MIC was > 80 µg/mL.

**Q.** What about the MIC ([13]; read-out: MIC) of the same molecule?
**A.** The MIC was 4 µg/mL (≈ 9.02 µM).

**Q.** What about the MIC ([14]; Staphylococcus aureus, 18 h) of the same molecule?
**A.** Its MIC is 5 µg/mL (≈ 11.3 µM).

**Q.** What about the MIC ([15]; Staphylococcus aureus, 18 h) of the same molecule?
**A.** The MIC was 2.5 µg/mL (≈ 5.64 µM).

**Q.** And the MIC [16, 31]?
**A.** The MIC was 5 µg/mL (≈ 11.3 µM).

**Q.** And the MIC [17, 32]?
**A.** The MIC was 5 µg/mL (≈ 11.3 µM).

**Q.** And the MIC [18, 35]?
**A.** The MIC was 2.5 µg/mL (≈ 5.64 µM).

**Q.** What about the MIC [19, 33] of the same molecule?
**A.** The MIC was > 128 µg/mL.

**Q.** What about the MIC ([20]; read-out: MIC) of the same molecule?
**A.** Its MIC is 64 µg/mL (≈ 144 µM).

**Q.** And the MIC [21, 34]?
**A.** The MIC was 5 µg/mL (≈ 11.3 µM).

**Q.** What about the MIC [22, 25] of the same molecule?
**A.** The MIC was 2.5 µg/mL (≈ 5.64 µM).

From patent US5041567A, “Antibacterial monic acid derivatives” (Beecham Group plc, priority 1982, dated 1991)
